Counter-ions that a name gives are not always drawn.

For 18 compounds, IC50 and EC50 results are on record in US9642851B2, “Indolinone derivative as tyrosine kinase inhibitor” (KBP Biosciences Co., Ltd., priority 2012, dated 2017).

In one test the target is T1, PDGFRβ (Homo sapiens, UniProt P09619).
T1 construct: purchased BPS
In words: In vitro enzymology inhibitory activity (Caliper mobility shift kinase assay). It is filed as biochemical. As to conditions: reaction 5 hour at 28° C., FAM-labelled peptide and ATP. Here is the method:
(§1) • (1) Preparation of agents and compounds • (1) 1-fold kinase buffer without MnCl2 (50 mM HEPES, pH=7.5, 0.0015% Brij-35, 10 mM MgCl2, 2 mM DTT) • (2) 1-fold kinase buffer with MnCl2 (50 mM HEPES, pH=7.5, 0.0015% Brij-35, 10 mM MgCl2, 10 mM MnCl2, 2 mM DTT); • (3) Termination solution (100 mM HEPES, pH=7.5, 0.015% Brij-35, 0.2% Coating Reagent #3, 50 mM EDTA); • (4) 2.5-fold kinase solution (the VEGFR2, FGFR1, FGFR3, PDGFRβ kinases were added to the 1-fold kinase buffer respectively to prepare the corresponding 2.5-fold kinase solutions); • (5) 2.5-fold substrate solution: FAM-labelled peptide and ATP were added to the 1-fold kinase buffer to prepare a peptide solution; • (6) 4-fold dilution of the compound solution: the compound was accurately weighed, and dissolved in DMSO. The mixture was mixed sufficiently and evenly to prepare a 10 mM solution. Then the solution was diluted with DMSO to 500 μM, and 4-fold serial dilutions were done at 10 concentrations with a highest concentration of 50μM.
(§2) The calculated inhibition ratio (%)=(max. conversion−sample conversion)/(max. conversion−min. conversion)×100
(§3) The curve fitting was done with the software Xlfit to obtain the IC50 value.

Another test has as its target T2, FGFR3 (Homo sapiens, UniProt P22607).
T2 construct: purchased Carna
The description is as above. As to conditions: reaction 1 hour at 28° C., FAM-labelled peptide and ATP. It is filed as biochemical. Here is the method:
as §1, §2, §3

In a further test the test system is HUVEC cells. In words: In vitro cellular inhibitory activity, h-VEGF-A stimulated HUVEC proliferation. It is filed as cell-based. The settings on record: Homo sapiens, h-VEGF-A 10 ng/ml, incubated for 89 hours, absorbance at 490 nm, read-out: ED50 for the HUVEC in vitro cells. Here is the method: (§4) (1) Thawing cells and Passing cells.
(§5) The 3T3 cells were resuspended in a culture medium containing 10% fetal bovine serum, wherein the cell concentration was 5×10^4/ml. The cell suspension was added to a 96-well plate with 100 μL per well, and incubated overnight; the HUVEC cells were resuspended in a culture medium containing 10% heat-inactivated fetal bovine serum, wherein the cell concentration was 7.5×10^4/ml. The cell suspension was added to a 96-well plate with 100 μL per well. • (3) Treating with drugs: the compounds were diluted to different concentrations, and 60 μLh-PDGF-BB (3T3 cells) and 40 ng/ml h-VEGF-A (HUVEC cells) were added and incubated for 1 hour. • (4) 100 μL of a solution containing the compound and h-PDGF-BB (h-VEGF-A, for the HUVEC cells) was added to a cell culture plate, wherein the final concentration of h-PDGF-BB was 10 ng/ml, the final concentration of h-VEGF-A was 10 ng/ml, and the final concentration for the compounds were 10, 3.3333, 1.1111, 0.3704, 0.1235, 0.0412, 0.0137, 0.0046, and 0.0015 μM. The plate was incubated for 40 hours, and the HUVEC cells were incubated for 89 hours. To each well was added 20 μL Promega Substrate, and the plate was incubated at 37° C. for 7.5 hours, and the HUVEC cells were incubated for 11.5 hours. Then the plate was placed in a microplate reader to read the absorbance at 490 nm. • (5) Data processing
(§6) The curve of the compound concentration vs. Net OD was plotted, wherein Net OD=Compound OD−min. OD. ED50 was calculated according to the following equation: Conc. ED50(x)=(y−b)/a, y=Calculated Net OD for IC50, a=slope, b=intercept.

A further test deals with 3T3 cells. Briefly: In vitro cellular inhibitory activity, h-PDGF-BB stimulated 3T3 proliferation. It is filed as cell-based. The settings on record: Mus musculus, NIH3T3; h-PDGF-BB 10 ng/ml, incubated for 40 hours, absorbance at 490 nm; read-out: ED50 for the 3T3 in vitro cells. Here is the method:
as §4, §5, §6

The next test addresses hERG potassium channel (Homo sapiens, UniProt Q12809). In words: Inhibitory effect on hERG potassium channel with the patch clamp method. Here is the method:
1. Preparations of the Solutions and the Compounds
Extracellular fluid (mM): N-2-hydroxyethylpiperazine-N′-2-ethanesulfonic acid (HEPES) 10, NaCl 145, KCl 4, CaCl2 2, MgCl2 1, Glucose 10, adjusted with 1N sodium hydroxide to pH=7.4; the osmotic pressure was adjusted to 290-300 mOsm; filtered and preserved at 4° C.
Intracellular solution (mM): KCl 120, KOH 31.25, CaCl2 5.374, MgCl2 1.75, Ethylene glycol-bis(β-aminoethyl ether)-N,N,N′,N′-tetraacetic acid (EGTA) 10, HEPES 10, Na2-ATP 4, adjusted with 1N potassium hydroxide to pH=7.2; the osmotic pressure was adjusted to 280-290 mOsm; filtered and preserved at −20° C.
Before the experiments, the above stock solutions were diluted with DMSO to the levels that were 333 or 1000 times higher than the experiment concentrations, and then diluted by 333 or 1000 folds with the extracellular fluid to the desired concentrations. The final concentration of DMSO in the extracellular fluid was 0.3% or 0.1%.
2. Electrophysiological experiment. The hERG current was recorded with whole cell patch clamp technique. A cell suspension was added to a 35 mm petri dish, and placed on the object stage of an inverted microscope. After the adherence of cells, the perfusion with the extracellular fluid was done in a perfusion rate of 1-2 ml/min. […] After establishing a whole-cell record, the holding potential was kept at −80 mV. In the voltage stimulation, the depolarization was made at the potential of +60 mV. Then, the repolarization was made at the potential of −50 mV and the hERG tail current was recorded. All of the recordings were conducted after the currents became stable. The extracellular perfusion administration started from the lower concentration, and the administration at each concentration was conducted for 5-10 mines until the current became stable and then the administration at the next concentration was conducted. 3. The Experiment Included the Following Aspects:
The hERG current was recoded on the CHO-K1 cell line stably expressing the hERG channel with the manual patch clamp technology; the inhibition ratio at each concentration was calculated according to the hERG tail current; each of the compounds was measured at five concentrations to deduce the IC50 value; two cells were measured at each concentration; and one positive control drug was used.
4. Data Collection and Processing
The stimulation and the signal collection were accomplished through A/D-D/A digital-analog conversions with Digidata 1440 (Molecular Devices) and pCLAMP software (Version 10.2, Molecular Devices); the signal was amplified with a patch clamp amplifier (Multiclamp 700B, Molecular Devices), and filtered at 1 KHz. The data were further analyzed and subjected to the curve fitting with Clampfit (Version 10.2, Molecular Devices) and Prism. The data were expressed as mean value±standard deviation. The IC50 value was obtained by the fitting based on the Logistic equation:
[formula] • y: the inhibitory percent; max: 100%; min: 0%; [drug]: the concentration of the tested substance; nH: the slope rate; IC50: the half maximal inhibitory concentration of the tested substance.

T2 sequence (P22607 23-806): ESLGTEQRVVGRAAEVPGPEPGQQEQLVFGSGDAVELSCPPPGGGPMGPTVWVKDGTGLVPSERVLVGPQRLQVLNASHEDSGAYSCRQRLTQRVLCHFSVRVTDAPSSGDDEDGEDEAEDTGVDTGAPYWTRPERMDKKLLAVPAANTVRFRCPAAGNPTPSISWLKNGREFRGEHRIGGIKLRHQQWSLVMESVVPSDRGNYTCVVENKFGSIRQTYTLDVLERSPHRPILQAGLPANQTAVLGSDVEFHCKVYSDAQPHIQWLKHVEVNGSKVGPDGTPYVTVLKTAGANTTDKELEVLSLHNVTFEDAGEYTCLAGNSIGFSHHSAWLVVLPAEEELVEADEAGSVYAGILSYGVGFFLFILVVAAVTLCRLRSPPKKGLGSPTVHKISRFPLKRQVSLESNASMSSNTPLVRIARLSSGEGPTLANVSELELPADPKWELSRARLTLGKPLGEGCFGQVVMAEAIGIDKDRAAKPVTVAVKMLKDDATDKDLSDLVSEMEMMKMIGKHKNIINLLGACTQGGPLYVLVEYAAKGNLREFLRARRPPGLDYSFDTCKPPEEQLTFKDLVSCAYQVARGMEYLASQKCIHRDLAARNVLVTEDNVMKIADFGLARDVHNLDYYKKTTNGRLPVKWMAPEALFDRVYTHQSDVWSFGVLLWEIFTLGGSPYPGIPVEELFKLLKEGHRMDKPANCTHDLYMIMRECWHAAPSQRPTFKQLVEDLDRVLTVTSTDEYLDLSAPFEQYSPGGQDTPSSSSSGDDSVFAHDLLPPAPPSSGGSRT
T1 sequence (P09619 33-1106): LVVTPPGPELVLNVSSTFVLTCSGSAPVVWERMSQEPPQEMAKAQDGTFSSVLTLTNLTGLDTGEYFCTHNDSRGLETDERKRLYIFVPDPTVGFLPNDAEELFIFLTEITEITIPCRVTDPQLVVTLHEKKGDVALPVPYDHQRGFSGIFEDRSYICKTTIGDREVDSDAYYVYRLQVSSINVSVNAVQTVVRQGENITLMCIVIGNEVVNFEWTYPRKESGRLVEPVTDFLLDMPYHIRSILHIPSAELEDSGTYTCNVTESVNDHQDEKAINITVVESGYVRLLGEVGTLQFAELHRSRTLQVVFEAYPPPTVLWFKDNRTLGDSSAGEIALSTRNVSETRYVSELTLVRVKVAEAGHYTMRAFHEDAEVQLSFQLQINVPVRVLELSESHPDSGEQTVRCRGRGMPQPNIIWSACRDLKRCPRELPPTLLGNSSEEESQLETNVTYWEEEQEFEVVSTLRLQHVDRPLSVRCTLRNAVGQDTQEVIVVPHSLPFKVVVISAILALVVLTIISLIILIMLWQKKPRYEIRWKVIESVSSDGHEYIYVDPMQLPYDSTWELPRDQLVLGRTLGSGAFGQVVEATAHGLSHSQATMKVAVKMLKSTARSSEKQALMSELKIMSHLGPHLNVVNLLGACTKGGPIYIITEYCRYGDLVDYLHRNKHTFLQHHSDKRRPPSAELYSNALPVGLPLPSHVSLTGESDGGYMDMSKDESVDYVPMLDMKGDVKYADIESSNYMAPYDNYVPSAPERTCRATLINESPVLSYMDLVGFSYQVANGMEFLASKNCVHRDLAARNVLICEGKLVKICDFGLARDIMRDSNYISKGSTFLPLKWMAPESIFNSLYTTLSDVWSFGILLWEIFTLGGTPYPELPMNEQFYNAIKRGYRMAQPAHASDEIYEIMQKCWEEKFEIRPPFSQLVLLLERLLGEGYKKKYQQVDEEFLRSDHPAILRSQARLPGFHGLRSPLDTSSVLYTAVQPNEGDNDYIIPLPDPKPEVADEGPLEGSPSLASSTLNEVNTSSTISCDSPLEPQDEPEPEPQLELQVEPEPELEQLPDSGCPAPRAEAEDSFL
Chain of hERG potassium channel (Q12809 whole entry): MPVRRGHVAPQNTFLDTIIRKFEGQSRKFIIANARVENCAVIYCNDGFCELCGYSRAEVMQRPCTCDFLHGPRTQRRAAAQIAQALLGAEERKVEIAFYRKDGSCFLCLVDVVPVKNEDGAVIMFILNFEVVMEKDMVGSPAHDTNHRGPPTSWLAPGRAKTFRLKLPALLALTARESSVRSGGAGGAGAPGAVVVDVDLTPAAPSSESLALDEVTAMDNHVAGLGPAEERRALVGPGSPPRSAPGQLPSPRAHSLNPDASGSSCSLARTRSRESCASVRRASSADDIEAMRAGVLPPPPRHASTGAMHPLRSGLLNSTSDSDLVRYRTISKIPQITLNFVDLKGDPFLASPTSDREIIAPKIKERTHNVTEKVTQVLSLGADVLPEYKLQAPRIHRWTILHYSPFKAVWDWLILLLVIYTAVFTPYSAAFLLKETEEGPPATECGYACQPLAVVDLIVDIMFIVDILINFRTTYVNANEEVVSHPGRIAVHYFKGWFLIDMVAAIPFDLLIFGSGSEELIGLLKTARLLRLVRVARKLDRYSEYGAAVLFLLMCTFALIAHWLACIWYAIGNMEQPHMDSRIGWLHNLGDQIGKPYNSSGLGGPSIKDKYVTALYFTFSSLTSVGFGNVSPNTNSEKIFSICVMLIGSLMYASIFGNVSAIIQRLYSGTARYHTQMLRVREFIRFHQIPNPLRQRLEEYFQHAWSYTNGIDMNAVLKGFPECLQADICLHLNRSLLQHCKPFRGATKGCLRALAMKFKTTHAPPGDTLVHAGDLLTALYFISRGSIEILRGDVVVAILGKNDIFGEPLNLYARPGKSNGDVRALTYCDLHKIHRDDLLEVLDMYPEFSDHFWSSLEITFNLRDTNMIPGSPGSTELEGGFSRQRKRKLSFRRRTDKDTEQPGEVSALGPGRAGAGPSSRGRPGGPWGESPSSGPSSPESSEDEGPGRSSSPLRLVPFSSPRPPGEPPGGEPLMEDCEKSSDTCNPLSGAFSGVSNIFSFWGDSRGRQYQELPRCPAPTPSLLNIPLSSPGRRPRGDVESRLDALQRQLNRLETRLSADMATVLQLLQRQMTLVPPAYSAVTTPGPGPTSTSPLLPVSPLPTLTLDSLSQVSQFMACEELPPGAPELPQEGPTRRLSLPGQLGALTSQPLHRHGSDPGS

Consider `COC(=O)c1ccc2c(c1)NC(=O)/C2=C(\Nc1ccc2c(c1)CCN2C(=O)CN(C)C)c1ccccc1` [Compound 2 hydrochloride, methyl(Z)-3-((1-(2-(dimethylamino)acetyl)indolin-5-ylamino)(phenyl)methylene)-2oxoindoline-6-carboxylate hydrochloride], for which the IC50 on PDGFRβ is 15 nM; at FGFR3 it was 280 nM.

Turning to `COC(=O)c1ccc2c(c1)NC(=O)/C2=C(\Nc1ccc2c(c1)CCN2C(=O)CN1CCN(C)CC1)c1ccc(F)cc1` [Compound 3], the EC50 in the test with HUVEC cells is 180 to 260 nM; in the test with 3T3 cells, 1300 to 1900 nM.

For the compound `CCOC(=O)c1ccc2c(c1)NC(=O)/C2=C(\Nc1ccc2c(c1)CCN2C(=O)CN1CCN(C)CC1)c1ccccc1` [Compound 4], in the test with HUVEC cells, the EC50 lay in the range of 120 to 170 nM. Turning to `COC(=O)c1ccc2c(c1)NC(=O)/C2=C(\Nc1ccc2c(c1)CCN2C(=O)CC1CCN(C)CC1)c1ccccc1` [Compound 5], the EC50 lay within 100 to 150 nM in the test on HUVEC cells and 820 to 1240 nM in the test with 3T3 cells. On to `COC(=O)c1ccc2c(c1)NC(=O)/C2=C(\Nc1ccc2c(c1)CCN2C(=O)CCC(=O)N(C)C)c1ccccc1` [Compound 6 hydrochloride], for which the EC50 with HUVEC cells was in the range of 190 to 280 nM.

For the compound `COC(=O)c1ccc2c(c1)NC(=O)/C2=C(\Nc1ccc2c(c1)CCN2C(=O)CN1CCOCC1)c1ccccc1` [Compound 7 hydrochloride], the EC50 in the test with 3T3 cells fell in the range of 50 to 70 nM.

For the compound `COC(=O)c1ccc2c(c1)NC(=O)/C2=C(\Nc1ccc2c(c1)CCN2C(=O)CN1CCOCC1)c1ccccc1` [Compound 7], the EC50 in the test on HUVEC cells lay in the range of 70 to 100 nM. At hERG potassium channel, this compound returned an IC50 of over 30000 nM.

As for `COC(=O)c1ccc2c(c1)NC(=O)/C2=C(\Nc1ccc2c(c1)CCN2C(=O)CN1CCC(O)CC1)c1ccccc1` [Compound 8], the EC50 in the test with HUVEC cells lay in the range of 70 to 100 nM. In turn, `COC(=O)c1ccc2c(c1)NC(=O)/C2=C(\Nc1ccc2c(c1)CCN2C(=O)CN1CCOCC1)c1ccc(F)cc1` [Compound 9, methyl(Z)-3-((4-fluorophenyl)(1-(2-morpholinylacetyl)indolin-5-ylamino)methylene)-2-oxoindoline-6-carboxylate] gave an IC50 on hERG potassium channel of over 30000 nM. Consider `CCOC(=O)c1ccc2c(c1)NC(=O)/C2=C(\Nc1ccc2c(c1)CCN2C(=O)CN1CCOCC1)c1ccccc1` [Compound 10, ethyl(Z)-3-((1-(2-morpholinylacetyl)indolin-5-ylamino)(phenyl)methylene)-2-oxoindoline-6-carboxylate], for which the IC50 on hERG potassium channel is over 30000 nM. As for `COC(=O)c1ccc2c(c1)NC(=O)/C2=C(\Nc1ccc2c(c1)CCN2C(=O)CN1CC(C)OC(C)C1)c1ccccc1` (centres unmarked) [Compound 11 hydrochloride, methyl(Z)-3-((1-(2-(2,6-dimethylmorpholine)acetyl)indolin-5-ylamino)(phenyl)methylene)-2-oxoindoline-6-carboxylate], in the test on HUVEC cells, the EC50 lay within 50 to 80 nM. Take `COC(=O)c1ccc2c(c1)NC(=O)/C2=C(\Nc1ccc2c(c1)CCN2C(=O)CN1CC(C)OC(C)C1)c1ccccc1` (centres unmarked) [Compound 11, methyl(Z)-3-((1-(2-(2,6-dimethylmorpholine)acetyl)indolin-5-ylamino)(phenyl)methylene)-2-oxoindoline-6-carboxylate]: the IC50 against hERG potassium channel was over 30000 nM. In the case of `COC(=O)c1ccc2c(c1)NC(=O)/C2=C(\Nc1ccc2c(c1)CCN2C(=O)CN1CCCC1=O)c1ccccc1` [Compound 12 hydrochloride, methyl(Z)-3-((1-(2-(2-pyrrolidon-1-yl)acetyl)indolin-5-ylamino)(phenyl)methylene)-2-oxoindoline-6-carboxylate], the EC50 in the test with HUVEC cells fell in the range of 20 to 30 nM. Further, the IC50 on PDGFRβ is 19 nM; on FGFR3 it was 1720 nM. For the compound `COC(=O)c1ccc2c(c1)NC(=O)/C2=C(\Nc1ccc2c(c1)CCN2C(=O)CN1CCCC1=O)c1ccccc1` [Compound 12, methyl(Z)-3-((1-(2-(2-pyrrolidon-1-yl)acetyl)indolin-5-ylamino)(phenyl)methylene)-2-oxoindoline-6-carboxylate], the IC50 against hERG potassium channel is over 30000 nM. The same measure, in the same setting: for `COC(=O)c1ccc2c(c1)NC(=O)/C2=C(\Nc1ccc2c(c1)CCN2C(=O)Cn1cncn1)c1ccccc1` [Compound 13, methyl(Z)-3-((1-(2-(1H-1,2,4-triazol-1-yl)acetyl)indolin-5-ylamino)(phenyl)methylene)-2-oxoindoline-6-carboxylate] the value was over 30000 nM. Take `COC(=O)c1ccc2c(c1)NC(=O)/C2=C(\Nc1ccc2c(c1)CCN2C(=O)Cn1cccn1)c1ccccc1` [Compound 14 hydrochloride, methyl(Z)-3-((1-(2-(1H-pyrazol-1-yl)acetyl)indolin-5-ylamino)(phenyl)methylene)-2-oxoindoline-6-carboxylate]: in the test on HUVEC cells, the EC50 is 70 to 100 nM. The IC50 at PDGFRβ came to 24 nM; at FGFR3, 4020 nM.

Turning to `COC(=O)c1ccc2c(c1)NC(=O)/C2=C(\Nc1ccc2c(c1)CCN2C(=O)Cn1cccn1)c1ccccc1` [Compound 14, methyl(Z)-3-((1-(2-(1H-pyrazol-1-yl)acetyl)indolin-5-ylamino)(phenyl)methylene)-2-oxoindoline-6-carboxylate], on hERG potassium channel, the IC50 is over 30000 nM.

Consider `COC(=O)c1ccc2c(c1)NC(=O)/C2=C(\Nc1ccc(N(C)C(=O)CN2CCN(C)CC2)cc1)c1ccccc1` [Intedanib (BIBF-1120), Intedanib, reference compound], for which half-maximal inhibition against hERG potassium channel (IC50) was put at 4900 nM.

Usually IC50 stands for the concentration that inhibits the measured activity by half.
